The numbers were not newly measured in US6605646B2, “Vitamin supplement composition” (Upsher-Smith Laboratories, Inc., priority 1995, dated 2003), which cites them from elsewhere.

The conditions of the series: grain fortification, elderly adults.

Molecules are shown by their SMILES.

In the case of `Nc1nc2ncc(CNc3ccc(C(=O)N[C@@H](CCC(=O)O)C(=O)O)cc3)nc2c(=O)[nH]1` [folic acid, pteroylglutamic acid], the serum folate entry is reported as “increased serum folate” and the serum homocysteine entry is “decreased serum homocysteine”.
